Measured values taken from patent US7893078B2 (priority 2001, dated 2011).
“And” between values parts separate entries of the source, which are not always exact repeats. Equal entries are not always repeated. “Also recorded” adds a separate entry of the source.

Legend:
[1] = tested on: normal epidermis and hair follicles; experiment: Normal skin exposed to the same schedule and doses of cyclopamine cream; histology, immunohistochemistry and follow-up
Excerpt: (§1) The base cream used is made predominantly of heavy paraffin oil (10% w/w), vaseline (10% w/w), stearyl alcohol (8% w/w), polyoxysteareth-40 (3% w/w) and water (68% w/w), but another suitably formulated base cream is also possible. […] Night-time applications, avoided in this schedule because of possible loss of cream from the patient skin to linens during sleep, can be performed by suitable dermal patches.

melanocytic nevi = experiment: Cyclopamine cream on mole / melanocytic nevi; format: in vivo, human
Excerpt: (§2) Trichoepithelioma is another tumor associated with genetic changes that cause increased hedgehog-smoothened signalling (Vorechovsky L. et al. (1997) Cancer Res. 57:4677-4681; Nilsson M. et al. (2000) Proc. Natl. Acad. Sci. USA 97:3438-3443).

[2] = tested on: basal cell carcinoma (BCC); settings: human, in vivo
Procedure: as §1
Every third hour, about 20 μl cream was applied directly onto the lower half and the upper half was left untreated.
The tumor was then followed up without treatment for a study of the possible late effects. […] For example expression of the cell adhesion molecule CD44 is known to increase upon differentiation of the epidermal basal cells to the upper spinous layer cells (Kooy A J et al (1999) Human Pathology 30:1328-1335).

trichoepithelioma = settings: human, in vivo
Excerpt: as §2

CC1=C2C[C@H]3[C@@H](CC=C4C[C@@H](O)CC[C@@]43C)[C@@H]2CC[C@]12O[C@@H]1C[C@H](C)CN[C@H]1[C@H]2C [Cyclopamine]
Appearance of former skin sites of cyclopamine application at long-term follow-up ([1]; followed up more than 31 months): healthy-looking normal skin and hair | Adverse effect on tissues and putative stem cells (histology, cytokeratin 15 and 19, Ber-Ep4) ([1]; normal skin exposed to same schedule and doses as the BCCs): no adverse effect | Effect on melanocytic nevi (melanocytic nevi; 18 mM cyclopamine cream, another volunteer, data not shown): rapid depigmentation and disappearance | Size and pigmentation of mole near treated tumor (melanocytic nevi; cyclopamine by diffusion from adjacent application area, 24th hour): decreased size and pigmentation | % of Cells Labelled with Ber-Ep4 [2]: 0 ± 0% | % of Cells showing ≦ 2 Morphological Signs of Apoptosis on H & E Stained Tissue Sections [2]: 20 ± 8% and 18 ± 11% | CD44 labelling of residual tumor cells (differentiation marker) [2]: markedly increased, strong labelling of essentially all residual tumor cells | Clinical regression of BCC [2]: rapid clinical regressions; also recorded: rapid regression; also recorded: largely regressed | Ki-67 antigen expression (proliferation marker) [2]: no longer expressed | Labelling of residual BCC cells with Ulex Europaeus lectin type 1 (differentiation marker) [2]: heterogenous labelling | Clinical regression of trichoepithelioma (trichoepithelioma): rapid regression
